How the values were obtained:
[1] = test system: HCT116 (colorectal cancer) cells; experiment: Cell counting with trypan blue (cell number / cytostasis and cell viability) in HCT116 cells; format: cell-based; conditions: 48 hours
A549 (lung cancer) cells = experiment: Cell counting with trypan blue (cell number / cytostasis and cell viability) in A549 cells; format: cell-based
Method: The cytostatic effect upon administration of 6-β-naltrexol (6BN) and naltrexone (NTX) to A549 (lung cancer) and HCT116 (colorectal cancer) cells was studied in vitro. Firstly, A549 and HCT116 cells were seeded into 6-well plates at a density of 2×10^5/well and left to adhere overnight. Cells were then cultured with 0.001 μM, 0.01 μM, 0.1 μM or 1 μM of 6BN or NTX for 48 hours. Experiments were performed alongside a control where cells were not administered with 6-β-naltrexol or naltrexone (FIG. 1).
The viability of cells was then measured by cell counting using trypan blue as a way of discriminating live and dead cells. Cytostasis was indicated by a reduction in cell number and no associated reduction in cell viability.
Next, the effect of co-administration of low dose (10 nM) or high dose (10 μM) 6-β-naltrexol or naltrexone (NTX) alongside calcitriol was investigated. The cytostatic and cytotoxic effect was investigated in both A549 and HCT116 cells. A549 and HCT116 cells were seeded into 6-well plates at a density of 2×10^5/well and left to adhere overnight. The following day low or high dose 6BN or NTX was added to cells in isolation or in combination with calcitriol and incubated for 48 hours. A549 cells were co-administered with 10 nM calcitriol, whereas HCCT116 cells were co-administered 10 nM calcitriol.
Cell viability and cytostasis were then determined as described in example 1.

Q: With `O=C1CC[C@@]2(O)[C@H]3Cc4ccc(O)c5c4[C@@]2(CCN3CC2CC2)[C@H]1O5` [NTX, naltrexone, reference compound] as the compound, how does the “cell viability upon combination with calcitriol” value ([1]; HCT116 cells, 10 nM NTX with 100 nM calcitriol) read?
A: Its value is “reduces the viability”.

Q: `Oc1ccc2c3c1OC1[C@H](O)CC[C@@]4(O)[C@@H](C2)N(CC2CC2)CC[C@]314` (stereo partly drawn) [6-β-naltrexol, 17-(Cyclopropylmethyl)-4,5-epoxymorphinan-3,6beta,14-triol] was tested. Which “cytostasis (cell number) upon co-administration with calcitriol” value (from here on “cytostasis … with calcitriol”) (A549 (lung cancer) cells; A549 cells, 10 nM 6BN co-administered with calcitriol, 48 hours) did it give?
A: Its value is “significant reduction in cytostasis”.

Q: What about the “cytostasis … with calcitriol” value (A549 (lung cancer) cells; A549 cells, 10 μM 6BN co-administered with calcitriol, 48 hours) of the same compound?
A: Its value is “not observed”.

Q: And the cell viability (A549 (lung cancer) cells; A549 cells, 0.001-1 μM, 48 hours, trypan blue)?
A: The cell viability was “No reduction in cell viability”.

Q: And the “cytostasis (cell number)” value (A549 (lung cancer) cells; A549 lung cancer cells, 0.001-1 μM, 48 hours, single agent)?
A: Its value is “selective reduction in cytotostasis in lung cancer cells”.

Q: And the “cytostasis … with calcitriol” value ([1]; HCT116 cells, 10 nM 6BN co-administered with calcitriol)?
A: The value was “not observed”.

Q: And the cell viability ([1]; HCT116 cells, 0.001-1 μM, trypan blue)?
A: Its cell viability is “No reduction in cell viability”.

Q: What about the “cytostasis (cell number)” value ([1]; HCT116 colorectal cancer cells, 0.001-1 μM, single agent, effect at higher concentrations) of the same compound?
A: Its value is “less pronounced decrease in cytotostasis”.

Q: For `C=C1/C(=C\C=C2/CCC[C@]3(C)[C@@H]([C@H](C)CCCC(C)(C)O)CC[C@@H]23)C[C@@H](O)C[C@@H]1O` [Calcitriol, calcitriol, reference compound], which “cytostatic effect of calcitriol in isolation” value (A549 (lung cancer) cells; lung cancer cells, calcitriol administered in isolation) is on record?
A: The value was “no independent cytostatic effect”.

— patent US11304943B2, “Combination for use in the treatment of lung cancer” (LDN Pharma Limited, priority 2017, dated 2022)
